According to patent US12466818B2, “Thienyl-aniline compounds for treatment of dermal disorders” (NFlection Therapeutics, Inc., priority 2018, dated 2025):

Experiment: Assay 4: liver S9 half-life stability assay
Type: in vitro ADME
Conditions: liver S9 fraction, pH 7.4; human liver S9, 1 μM test compound, NADPH
Method: Compounds can be assessed for metabolic stability in human skin by assessing their rate of disappearance from human S9 skin fraction. Similarly, compounds can be assessed for metabolic stability in human liver by assessing their rate of disappearance from human S9 liver fraction. The protocol below is used to assess the difference between skin and hepatic metabolism.
The assay was carried out in 96-well microtiter plates at 37° C. Reaction mixtures (25 μL) contained a final concentration of 1 μM test compound, 2 mg/mL liver or skin protein, and 1 mM NADPH in buffer (100 mM potassium phosphate, pH 7.4 buffer with 1 mM EDTA, 3 mM MgCl2). At each of the time points (0, 15, 30, and 60 minutes), 150 μL, of quench solution (100% acetonitrile with 0.1% formic acid) with internal standard was transferred to each well. […]
All samples were analyzed on LC/MS/MS using an AB Sciex API 4000 instrument, coupled to a Shimadzu LC-20AD LC Pump system. […]
The extent of metabolism was calculated as the disappearance of the test compound, compared to the 0-min control reaction incubations. Initial rates were calculated for the compound concentration and used to determine tin values and subsequently, the intrinsic clearance, CLint=(0.693)(1/t1/2 (min)) (mL incubation/mg of S9 protein). […]

half-life at 1 μM: 0.833 to 1.67 h
Compound: O=C1CCCc2c1sc(Nc1ccc(I)cc1F)c2C(=O)NOCCO [Compound 1.029, 2-((2-Fluoro-4-iodophenyl)amino)-N-(2-hydroxyethoxy)-7-oxo-4,5,6,7-tetrahydrobenzo[b]thiophene-3-carboxamide]
